Source: US8367702B2, “Quinolone derivative” (Astellas Pharma Inc., priority 2007, dated 2013)

Columns and labels:
NADPH oxidase = experiment: Inhibitory activity on ROS production derived from NADPH oxidase (HUVECs, nitrotetrazolium blue); assay type: cell-based, Human; conditions: 1.0 μM test compound, 25 mM glucose, 200 μM NADPH, 2 hours
Procedure: Test 1: Inhibitory Activity on ROS Production Derived from NADPH Oxidase
This activity was measured by using Human Umbilical Vein Endothelial Cells (HUVECs). The test method is as follows.
3×10^4 cells/well (100 μL) of HUVECs were seeded into a 96-well plate coated with collagen. The culture medium was MCDB131 medium containing 10% fetal bovine serum, 2 mM glutamine, 100 U/mL penicillin, 100 U/mL streptomycin, and 10 ng/mL recombinant human basic-FGF. On the next day, the culture medium was removed by an aspirator, and 100 μL/well of phosphate buffered saline containing 25 mM glucose, 200 μM NADPH, 0.2% nitrotetrazolium blue, and test compounds followed by culturing at 37° C. Nitrotetrazolium blue reacts with intracellularly produced ROS and turns into a water-insoluble blue pigment. After 2 hours, the supernatant was discarded, and the wells were washed three times with phosphate buffered physiological saline. Then, 100 μL/well of 90% DMSO water containing 0.04M sodium hydroxide was added to each well to completely dissolve the pigment, and an absorbance at a wavelength of 715 nm was measured. By taking an absorbance with no addition of a test compound as A, an absorbance […], and an absorbance with addition of glucose, NADPH and a test compound as C, ROS production inhibitory rate was calculated according to the following equation. Inhibition rate (%)=[…]
Abbreviation “Ex” in the table represents Example Compound No. which will follow, and abbreviation “Inh” represents an ROS production inhibition rate. It was confirmed that the compounds of the formula (I) of the present invention have an excellent ROS production inhibitory activity.

[1] = Oral glucose tolerance test using mice; assay type: in vivo; conditions: Mus musculus, 0.5 h, 3 mg/kg orally 5 minutes prior to oral glucose loading (2 g/kg), 30 minutes after glucose loading, relative to control group, male ICR or C57BL/6 J mice, read-out: blood glucose-lowering rate
Text: Test 2: Oral Glucose Tolerance Test Using Mice
This test is intended to evaluate an inhibitory action of a test compound on elevation of the blood glucose level after glucose loading, using mice. A test method is described hereinafter.
Male ICR or C57BL/6 J mice (6 weeks old, available from CLEA JAPAN, Inc.) pre-bred for one week were fasted overnight and used as test animals. A test compound was suspended in 10% PEG-60 Hydrogenated Castor Oil (HCO-60) aqueous solution, and was orally administered (3 mg/kg) to animals 5 minutes prior to oral glucose loading (2 g/kg). The control group was given a 10% HCO-60 aqueous solution. According to the following equation, a blood glucose-lowering rate (%) at 30 minutes after glucose loading was calculated for the test compound-treated group relative to the control group. An increase in the blood glucose level of the test compound-treated group and an increase in the blood glucose level of the control group were taken as A and B, respectively. Blood glucose-lowering rate (%)=100−[(A/B)×100]

Row | Structure (SMILES) | melting point | Inh(%) ROS production inhibition rate (NADPH oxidase) [%] | inhibition in vivo at 3 mg/kg [1] [%]
1 | Cc1c(COc2ncc(C(=O)NC3CCCC3)cn2)[nH]c2ccccc2c1=O [Ex 230] | > 231 °C (dec.) |  | 
2 | Cc1c(COc2cccc(OCC3CCOCC3)c2)[nH]c2ccccc2c1=O [Example 2, 3-methyl-2-{[3-(tetrahydro-2H-pyran-4-ylmethoxy)phenoxy]methyl}quinolin-4(1H)-one] | 200 to 202 °C | 91.9 ± 5.2 | 
3 | Cc1cccc(CNC(=O)OCc2[nH]c3ccccc3c(=O)c2C)c1 [Ex 283] | 240 to 243 °C | 61.6 ± 1.7 | 
4 | Cc1c(COC(=O)Nc2cccc(Cc3ccccc3)c2)[nH]c2ccccc2c1=O [Ex 285] |  | 67.3 ± 0.1 | 
5 | CCS(=O)(=O)N[C@H]1CC[C@H](OCc2[nH]c3ccccc3c(=O)c2C)CC1 [Example 6, N-{trans-4-[(3-methyl-4-oxo-1,4-dihydroquinolin-2-yl)methoxy]cyclohexyl}ethanesulfonamide] | 245 to 247 °C | 79.9 ± 1.2 | 
6 | Cc1c(COCCCCOc2ccc(C#N)cc2)[nH]c2ccccc2c1=O [Ex 49] |  | 90.8 ± 5.2 | 
7 | Cc1c(COc2cc(OCCC3(O)CCOCC3)ccn2)[nH]c2ccccc2c1=O [Ex 179] | 189 to 190 °C |  | 
8 | Cc1c(COc2ccc3c(c2)N(C(=O)CC2CCOCC2)CCC3)[nH]c2ccc(F)cc2c1=O [Ex 166] |  | 84.3 ± 2.4 | 
9 | Cc1c(COc2cccc(N3CCC(OCCC(C)(C)O)CC3)c2)[nH]c2ccccc2c1=O [Ex 194] | 160 to 163 °C |  | 
10 | Cc1c(CN2CCc3cc(OCC4CCOCC4)ccc3C2)[nH]c2ccccc2c1=O [Ex 180] |  | 69.5 ± 1.3 | 
11 | Cc1c(COc2cc(OCC3CCOCC3)ccn2)[nH]c2ccc(F)cc2c1=O [Ex 153] |  |  | 70 to 105
12 | Cc1c(CCC2CCN(C(=O)CC(C)(C)O)CC2)[nH]c2ccccc2c1=O [Ex 271] | 203 to 205 °C |  | 
13 | Cc1c(CCCCCOc2ccc(F)cc2F)[nH]c2ccc(F)cc2c1=O [Ex 28] | 201 to 203 °C |  | 
14 | Cc1c(CCc2cc(OCC3CCOCC3)ccn2)[nH]c2ccccc2c1=O [Ex 184] | 212 to 215 °C |  | 
15 | Cc1c(COc2cccc(OCCC(C)(C)O)c2)[nH]c2ccccc2c1=O [Ex 141] |  |  | 70 to 105
16 | Cc1c(COC2CCOCC2)[nH]c2ccccc2c1=O [Ex 212] | 194 to 196 °C |  | 
17 | Cc1c(COCC(C)(C)COC(=O)N2CCOCC2)[nH]c2ccccc2c1=O [Ex 204] | 155 to 157 °C |  | 
18 | CCCCCCCS(=O)(=O)Cc1[nH]c2ccccc2c(=O)c1C [Example 19, 2-[(heptylsulfonyl)methyl]-3-methylquinolin-4(1H)-one] | > 310 °C (dec.) | 99.1 ± 0.0 | 
19 | Cc1c(CO[C@H]2CC[C@H](N3CCCC3=O)CC2)[nH]c2ccccc2c1=O [Example 7, 3-methyl-2-({[trans-4-(2-oxopyrrolidin-1-yl)cyclohexyl]oxy}methyl)quinolin-4(1H)-one] | 216 to 217 °C |  | 
20 | Cc1c(COc2cc(OCCC(C)(C)O)cc(N3CCOCC3)c2)[nH]c2ccccc2c1=O [Example 10, 2-{[3-(3-hydroxy-3-methylbutoxy)-5-morpholin-4-ylphenoxy]methyl}-3-methylquinolin-4(1H)-one] | 189 to 190 °C |  | 
21 | CCOC(=O)N1CCC(CCc2[nH]c3ccccc3c(=O)c2C)CC1 [Ex 276] | 211 to 213 °C | 118.2 ± 4.0 | 
22 | Cc1c(COc2ccc(CCC3(O)CCCC3)cc2)[nH]c2ccccc2c1=O [Example 3, 2-({4-[2-(1-hydroxycyclopentyl)ethyl]phenoxy}methyl)-3-methylquinolin-4(1H)-one] | 200 to 202 °C |  | 
23 | Cc1c(COc2cccc(OCC3CCOCC3)n2)[nH]c2ccccc2c1=O [Ex 143] | 221 to 223 °C |  | 
24 | Cc1c(COc2cc(OCCC3CCOCC3)ccn2)[nH]c2ccccc2c1=O [Example 8, 3-methyl-2-[({4-[2-(tetrahydro-2H-pyran-4-yl)ethoxy]pyridin-2-yl}oxy)methyl]quinolin-4(1H)-one] | 137 to 138 °C | 91.5 ± 4.7 | 70 to 105

Row | Structure (SMILES) | melting point | Inh(%) ROS production inhibition rate (NADPH oxidase) [%] | inhibition in vivo at 3 mg/kg [1] [%]
25 | Cc1c(COc2cc(OCCC(C)(C)O)ccn2)[nH]c2ccccc2c1=O [Example 4, 2-({[4-(3-hydroxy-3-methylbutoxy)pyridin-2-yl]oxy}methyl)-3-methylquinolin-4(1H)-one] | 127 to 130 °C | 84.7 ± 2.1 | 70 to 105
26 | CCNC(=O)N[C@H]1CC[C@H](OCc2[nH]c3ccccc3c(=O)c2C)CC1 [Ex 224] | > 270 °C (dec.) |  | 
27 | Cc1c(CO[C@H]2CC[C@H](NC(=O)CC(C)(C)O)CC2)[nH]c2ccccc2c1=O [Ex 248] |  |  | 89
28 | Cc1c(COc2cccc(N3CCC(C)(O)CC3)c2)[nH]c2ccccc2c1=O [Ex 199] |  | 93.1 ± 1.1 | 
29 | CCOC(=O)N[C@H]1CC[C@H](OCc2[nH]c3ccccc3c(=O)c2C)CC1 [Example 5, ethyl {trans-4-[(3-methyl-4-oxo-1,4-dihydroquinolin-2-yl]methoxy]cyclohexyl}carbamate] | 268 to 271 °C |  | 
30 | CC(=O)N1CCC(COc2cccc(OCc3[nH]c4ccccc4c(=O)c3C)c2)CC1 [Ex 98] |  | 101.5 ± 1.9 | 
31 | Cc1c(COC(=O)NCC2CCCCC2)[nH]c2ccccc2c1=O [Ex 291] |  | 118.8 ± 0.4 | 
32 | COC(C)(C)CCOCCCCOCc1[nH]c2ccccc2c(=O)c1C [Ex 55] |  | 57.3 ± 2.3 | 
33 | Cc1c(COc2cccc(N3CCOCC3=O)c2)[nH]c2ccccc2c1=O [Example 9, 3-methyl-2-{[3-(3-oxomorpholin-4-yl)phenoxy]methyl}quinolin-4(1H)-one] | 221 to 223 °C | 88.7 ± 1.5 | 
34 | Cc1c(COCCCCOc2cccc3c2OC(C)(C)C3)[nH]c2ccccc2c1=O [Ex 52] | 139 to 140 °C |  | 
35 | Cc1c(COCCC2(O)CCCCC2)[nH]c2ccccc2c1=O [Ex 205] | 125 to 127 °C |  | 
36 | Cc1c(COc2cccc(OCCc3ccncc3)c2)[nH]c2ccccc2c1=O [Ex 127] |  | 85.3 ± 2.9 | 
37 | CCCCCC(=O)N1CCC(OCc2[nH]c3ccc(F)cc3c(=O)c2C)CC1 [Ex 128] |  | 77.7 ± 3.9 | 
38 | Cc1c(COCCCCOCCC2CC2)[nH]c2ccccc2c1=O [Ex 53] | 155 to 157 °C |  | 
39 | Cc1c(COc2cccc(N3CCC(O)CC3)c2)[nH]c2ccccc2c1=O [Ex 198] |  | 97.5 ± 6.1 | 
40 | Cc1c(COc2ccc3c(c2)CCN(C(=O)CC(C)(C)O)C3)[nH]c2ccccc2c1=O [Ex 213] | 135 to 138 °C |  | 
41 | CCS(=O)(=O)N1CCC(CCc2[nH]c3ccccc3c(=O)c2C)CC1 [Ex 279] | 225 to 228 °C | 98.9 ± 1.0 | 
42 | COCCc1ccc(OCCCCOCc2[nH]c3ccccc3c(=O)c2C)cc1 [Ex 50] |  | 80.5 ± 2.5 | 
43 | COC(C)(C)CCOc1ccnc(OCc2[nH]c3ccccc3c(=O)c2C)c1 [Ex 186] |  |  | 70 to 105
44 | CCCCCC(=O)N1CCN(Cc2[nH]c3ccccc3c(=O)c2C)CC1 [Ex 181] | 171 to 173 °C |  | 
45 | Cc1c(CCC2CCN(C(=O)C3CC3)CC2)[nH]c2ccccc2c1=O [Ex 209] | 222 to 224 °C |  | 
46 | Cc1c(COCCN(C(=O)C2CCOCC2)C2CCCCC2)[nH]c2ccccc2c1=O [Ex 228] |  | 66.3 ± 2.1 | 
47 | Cc1c(COC(=O)NCCCc2ccccc2)[nH]c2ccccc2c1=O [Ex 284] |  | 64.2 ± 0.1 | 70 to 105
